Consider four compounds from patent US20210371899A1, “METHOD AND KIT FOR […], AND PLASMID, BACULOVIRUS, CELL AND METHOD OF PREPARING THE SAME FOR PESTICIDE DETECTIONS” (priority 2018, published 2021).

Assay [1] concerns the target T1, AChE-6MC (truncated AChE Y408F fused with TM and CTD of baculovirus GP64, displayed on Hi5 cells) (Drosophila melanogaster, UniProt P07140, R99G/Y408F).
T1 construct: honeybee mellitin signal peptide (HM) (N); expressed in transfected cells; host or cells: Trichoplusia ni High Five (Hi5) cells infected with recombinant baculovirus vAChE-6MC, lyophilised in the plate
Nature of the assay: Inhibition of cell-surface displayed AChE-6MC (Ellman's method, ATCh/DTNB, 412 nm). Type of assay: biochemical. How it is done:
(§1) Hi5 cells were infected with AChE-FL-bac (FL), AChE-6MC-bac (6MC) or WT-bac (WT) respectively, for 3 days. After the removal of media, the cells were subjected to a 5-hour lyophilization in the 96-well plates. Two OP and two CB insecticide compounds were serial-diluted and added to the infected cell samples, as well as a 100 mU/mL AChE (ST, Abcam) in 96-well plates and the commercialized AChE (Sichen) in cuvette for a further comparison. AChE activities were analyzed for all these sample in order to determine the sensitivities of these AChE to different insecticides. DMSO with different concentrations in DPBS were added to determine the background effects. Pesticides tested are: (a) paraoxon ethyl, (b) malaoxon, (c) carbofuran (d) carbaryl.
(§2) AChE activity was determined by Ellman's method. For each 96-well, 50 μl of 3 mM ATCh and 50 μl of 3 mM Ellman's reagent DTNB solution was added. After 10 minutes of incubation at room temperature, average absorbance at 412 nm was determined. […] The diluted solutions were then added individually into 96-well microplates with Hi5 cells infected by the seven recombinant viruses (vDmAChE, vHsAChE, vRnAChE, vAmAChE, vSfAChE, DamAChE, and vBdAChE). After incubation for 10 minutes, substrate ATCh and DTNB solution were added to the reaction mixture. After 10 minutes of incubation at room temperature, residual activity was determined with a microplate reader at 412 nm.
(§3) The acetylcholinesterase stock solution was diluted into 50 units/mL in assay buffer at ratio 1:50 to generate 1000 mU/mL acetylcholinesterase standard solution. Then, the 1000 mU/mL acetylcholinesterase standard solution was further diluted into 300, 100, 30, 10, 3, 1 and 0 mU/mL for determining the average absorbance of each standard. The reading of each standard was plotted as a function of the amount of acetylcholinesterase to establish a standard curve, and the corresponding amount of AChE in each test samples was calculated by the derived linear equation. […]
(§4) The remaining activity of AChE is evaluated by the following equation: […]
(§5) In which, ΔA0 indicates the change of absorbance of the positive control, and ΔAS indicates the change of absorbance of the applied pesticide incubated solution.
(§6) As for a comparison, the test results using the most common AChE insecticide diagnostic kit in Taiwan sold by Sichen Inc. were also included, and the IC50 for all of the test samples were also calculated (Table 1). For Sichen, since they acquire the AChE from fly, also they have to use cuvette (1 mL) for measurement, thus high quantity of AChE should be used. […] 96-well plate was applied, which requires only 100 μL solution for detection, and easily to handle, and can be read by bare eye for the detection of residue pesticides.

For assay [2], the target named is AChE (Abcam) (UniProt O42275). Nature of the assay: Inhibition of purified standard AChE (Abcam). The class given is biochemical.
Description: AChE activity was determined by Ellman's method. For each 96-well, 50 μl of 3 mM ATCh and 50 μl of 3 mM Ellman's reagent DTNB solution was added. After 10 minutes of incubation at room temperature, average absorbance at 412 nm was determined. […] The diluted solutions were then added individually into 96-well microplates with Hi5 cells infected by the seven recombinant viruses (vDmAChE, vHsAChE, vRnAChE, vAmAChE, vSfAChE, DamAChE, and vBdAChE). […] After 10 minutes of incubation at room temperature, residual activity was determined with a microplate reader at 412 nm.
The target of assay [3] is commercialized AChE (Sichen) (Musca domestica, UniProt Q7YWJ9). Kind of assay: Inhibition of commercial AChE kit (Sichen), cuvette. The class given is biochemical, fly. How it is done:
as §1
Acetylcholinesterase Assay Kit (standard AChE) was purchased from Abcam. Rapid Bioassay of Pesticides Residues Reagent Kit (commercial AChE) was purchased from Sichen.
The acetylcholinesterase stock solution was diluted into 50 units/mL in assay buffer at ratio 1:50 to generate 1000 mU/mL acetylcholinesterase standard solution. Then, the 1000 mU/mL acetylcholinesterase standard solution was further diluted into 300, 100, 30, 10, 3, 1 and 0 mU/mL for determining the average absorbance of each standard. The reading of each standard was plotted as a function of the amount of acetylcholinesterase to establish a standard curve, and the corresponding amount of AChE in each test samples was calculated by the derived linear equation. To calculate the inhibition of AChEs activity (%), vCont-Bac infected cells (without expression of AChE on the surface) served as the negative control, whereas Abcam purified protein, Sichen commercial protein, vAChE-FL and vAChE-6MC infected cells without pesticide incubation served as the positive control. The activity of the positive control was considered 100%.
The remaining activity of AChE is evaluated by the following equation:
Inhibition of AChEs activity (%)(ΔA0−ΔAS)/ΔA0)×100
as §5
As for a comparison, the test results using the most common AChE insecticide diagnostic kit in Taiwan sold by Sichen Inc. were also included, and the IC50 for all of the test samples were also calculated (Table 1). For Sichen, since they acquire the AChE from fly, also they have to use cuvette (1 mL) for measurement, thus high quantity of AChE should be used. […] In the present application, however, there are no need for fly rearing and no need for AChE purification. 96-well plate was applied, which requires only 100 μL solution for detection, and easily to handle, and can be read by bare eye for the detection of residue pesticides.

Assay [4] deals with T2, AChE-FL (full-length AChE Y408F displayed on Hi5 cells) (Drosophila melanogaster, UniProt P07140, R99G/Y408F).
T2 construct: honeybee mellitin signal peptide (HM) (N); expressed in transfected cells; host or cells: Trichoplusia ni High Five (Hi5) cells infected with recombinant baculovirus vAChE-FL, lyophilised in the plate
Nature of the assay: Inhibition of cell-surface displayed AChE-FL (Ellman's method, ATCh/DTNB, 412 nm). Type of assay: biochemical. How it is done: as §1, §2, §3, §4, §5, §6

Where [5] appears, read: read-out: IC50 of OP and CB towards AChEs, Abcam; 100 mU/mL purified AChE standard, 96-well plate.
Where [6] appears, read: Hi5 cells infected with vAChE-6MC, 3 days, lyophilized 5 h, 96-well plate, read-out: IC50 of OP and CB towards AChEs, AChE-6MC.
Setting [7] is: commercialized AChE kit, cuvette (1 mL), read-out: IC50 of OP and CB towards AChEs, Sichen.
[8] abbreviates: Hi5 cells infected with vAChE-FL, 3 days, lyophilized 5 h, 96-well plate, read-out: IC50 of OP and CB towards AChEs, AChE-FL.

Each structure is given as a SMILES string. Where two headings read alike, the source gives them in different places.

For `CNC(=O)Oc1cccc2ccccc12` [Carbaryl, carbaryl], the IC50 in assay [1] was 650 nM; in assay [2] (setting [5]), 6500 nM; in assay [3], 5900 nM; in assay [4] it was 6800 nM.
Regarding `CNC(=O)Oc1cccc2c1OC(C)(C)C2` [Carbofuran, carbofuran], the IC50 amounted to 4500 nM in assay [1] (setting [6]); 540 nM in assay [2] (100 mU/mL purified AChE standard, 96-well plate; read-out: IC50 of OP and CB towards AChEs, Abcam); 2800 nM in assay [3] (setting [7]); 48000 nM in assay [4] (setting [8]).
Take `CCOC(=O)CC(SP(=O)(OC)OC)C(=O)OCC` (stereo not drawn) [Malaoxon, malaoxon]: the IC50 in assay [1] came to 62 nM; in assay [2] (setting [5]) it was 820 nM; in assay [3], 950 nM; in assay [4], 560 nM.
As to `CCOP(=O)(OCC)Oc1ccc([N+](=O)[O-])cc1` [Paraoxon ethyl, paraoxon ethyl], the values for the IC50 in assay [1] (setting [6]), in assay [3] (setting [7]) and in assay [4] (setting [8]) were 55 nM, 2300 nM and 490 nM, respectively.
